Series [1] concerns P388 Leukemia. The series is described as follows: P388 leukemia in vivo (increase in lifespan). The conditions noted are these: at OD; i.p. tumour, days 1, 5 and 9; >20% statistically significant.
The nature of series [2]: Rm from reversed phase partition chromatography (lipophilic-hydrophilic balance).
Text: Rm=a measure of the compound's lipophilic-hydrophilic balance from reversed phase partition chromatography. Rm is linearly related to partition coefficients obtained in the 1-octanol/water system.

For `CNc1cc(NS(C)(=O)=O)ccc1Nc1c2ccccc2nc2cc(C)ccc12` [Compound 3], the “ILSmax (percentage increase in lifespan), P388” value in series [1] turned out to be 83%. In series [2], this compound came in with a chromatographic logP of 0.39.
The like results for `CNc1cc(NS(C)(=O)=O)ccc1Nc1c2ccccc2nc2cc(OC)ccc12` [Compound 4] were, in that order, 140% and 0.21.
`CNc1cc(NS(C)(=O)=O)ccc1Nc1c2ccccc2nc2cc(F)ccc12` [Compound 5] gave a chromatographic logP in series [2] of 0.28.
The compound `CNc1cc(NS(C)(=O)=O)ccc1Nc1c2ccccc2nc2cc(Cl)ccc12` [Compound 6] came in with a chromatographic logP in series [2] of 0.36.
As to `CNc1cc(NS(C)(=O)=O)ccc1Nc1c2ccccc2nc2cc(Br)ccc12` [Compound 7], the “ILSmax (percentage increase in lifespan), P388” value in series [1] is 94%. Besides, the chromatographic logP in series [2] was 0.34.
Regarding `CNc1cc(NS(C)(=O)=O)ccc1Nc1c2ccccc2nc2cc(I)ccc12` [Compound 8], in series [1], the “ILSmax (percentage increase in lifespan), P388” value is reported as 80%. This compound had a chromatographic logP in series [2] of 0.35.
The like results for `CNc1cc(NS(C)(=O)=O)ccc1Nc1c2ccccc2nc2cc([N+](=O)[O-])ccc12` [Compound 9] were, in that order, 70% and 0.04.
In series [2], `CNc1ccc2c(Nc3ccc(NS(C)(=O)=O)cc3NC)c3ccccc3nc2c1` [Compound 10] registered a chromatographic logP of 0.18.
The same measure, in the same setting: for `CNc1cc(NS(C)(=O)=O)ccc1Nc1c2ccccc2nc2cc(NC(=O)OC)ccc12` [Compound 11] the value was 0.13; for `CNc1cc(NS(C)(=O)=O)ccc1Nc1c2ccccc2nc2c(C)cccc12` [Compound 12], 0.19; for `CNc1cc(NS(C)(=O)=O)ccc1Nc1c2ccccc2nc2c(OC)cccc12` [Compound 13], 0.12.
Regarding `CNC(=O)c1cccc2c(Nc3ccc(NS(C)(=O)=O)cc3NC)c3ccccc3nc12` [Compound 15], the “ILSmax (percentage increase in lifespan), P388” value in series [1] is 82%. The chromatographic logP in series [2] turned out to be 0.07.
As for `CNc1cc(NS(C)(=O)=O)ccc1Nc1c2ccc(C)cc2nc2c(C)cccc12` [Compound 16], the “ILSmax (percentage increase in lifespan), P388” value in series [1] stood at 92%. In series [2], this compound had a chromatographic logP of 0.38.
As to `CNc1cc(NS(C)(=O)=O)ccc1Nc1c2ccc(OC)cc2nc2c(C)cccc12` [Compound 17], in series [2], the chromatographic logP was determined as 0.31.
In series [2], `CNc1cc(NS(C)(=O)=O)ccc1Nc1c2ccc(F)cc2nc2c(C)cccc12` [Compound 18] registered a chromatographic logP of 0.31.
Same read-out and setting: next, `CNc1cc(NS(C)(=O)=O)ccc1Nc1c2ccc(Cl)cc2nc2c(C)cccc12` [Compound 19]: 0.4; `CNc1cc(NS(C)(=O)=O)ccc1Nc1c2ccc(Br)cc2nc2c(C)cccc12` [Compound 21]: 0.38; `CNc1cc(NS(C)(=O)=O)ccc1Nc1c2ccc(C)cc2nc2c(OC)cccc12` [Compound 22]: 0.33.
With `CNC(=O)c1cccc2c(Nc3ccc(NS(C)(=O)=O)cc3NC)c3ccc(Cl)cc3nc12` [Compound 23], in series [1], the “ILSmax (percentage increase in lifespan), P388” value came out at 59%. In addition, the chromatographic logP in series [2] was 0.23.
The like results for `CNC(=O)c1cccc2c(Nc3ccc(NS(C)(=O)=O)cc3NC)c3cccc(C)c3nc12` [Compound 24] were, in that order, 94% and 0.23.
`CNc1cc(NS(C)(=O)=O)ccc1Nc1c2cccc(C)c2nc2c(C)cccc12` [Compound 25] came in with a chromatographic logP in series [2] of 0.16.
Consider `CNc1cc(NS(C)(=O)=O)ccc1Nc1c2cccc(OC)c2nc2c(OC)cccc12` [Compound 26], for which the “ILSmax (percentage increase in lifespan), P388” value in series [1] stood at 84%.
For the compound `CS(=O)(=O)Nc1ccc(Nc2c3ccccc3nc3ccccc23)c(NCCO)c1` [Compound 27], the “ILSmax (percentage increase in lifespan), P388” value in series [1] was 89%. The same compound displayed a chromatographic logP in series [2] of 0.07.
Regarding `CS(=O)(=O)Nc1ccc(Nc2c3ccccc3nc3cc(Br)ccc23)c(NCCO)c1` [Compound 28], in series [2], the chromatographic logP was 0.11.
For the compound `Cc1cccc2c(Nc3ccc(NS(C)(=O)=O)cc3NCCO)c3ccccc3nc12` [Compound 29], the chromatographic logP in series [2] turned out to be 0.02.
For `CS(=O)(=O)Nc1ccc(Nc2c3ccccc3nc3ccccc23)c(NCC(O)CO)c1` (centres unmarked) [Compound 30], in series [1], the “ILSmax (percentage increase in lifespan), P388” value is listed as 84%. The chromatographic logP in series [2] amounted to 0.3.
As for `Cc1cccc2c(Nc3ccc(NS(C)(=O)=O)cc3NCC(O)CO)c3ccccc3nc12` (centres unmarked) [Compound 31], the “ILSmax (percentage increase in lifespan), P388” value in series [1] is listed as 83%. Also, the chromatographic logP in series [2] was found to be 0.21.
In the case of `CN(CCO)c1cc(NS(C)(=O)=O)ccc1Nc1c2ccccc2nc2ccccc12` [Compound 45], the “ILSmax (percentage increase in lifespan), P388” value in series [1] turned out to be 100%. Also, in series [2], the chromatographic logP came out at 0.1.
The like results for `CNc1cc(NP(=O)(OC)OC)ccc1Nc1c2ccccc2nc2ccccc12` [Compound 47] were, in that order, 118% and 0.32.
For `CNc1cc(NP(=O)(OC)OC)ccc1Nc1c2ccccc2nc2cc(Br)ccc12` [Compound 48] the same measures were 77% and 0.62.
`CNc1cc(NP(=O)(OC)OC)ccc1Nc1c2ccccc2nc2c(C)cccc12` [Compound 49]: the “ILSmax (percentage increase in lifespan), P388” value in series [1] stood at 91%. Besides, the chromatographic logP in series [2] was found to be 0.47.
In the case of `CNc1cc(NC(=O)OC)ccc1Nc1c2ccccc2nc2ccccc12` [Compound 50], the chromatographic logP in series [2] came to 0.51.
Regarding `COC(=O)Nc1ccc(Nc2c3ccccc3nc3ccccc23)c(NCCO)c1` [Compound 51], the chromatographic logP in series [2] amounted to 0.39.
Regarding `CNc1cc(NC(=O)OC)ccc1Nc1c2ccccc2nc2cc(C)ccc12` [Compound 52], in series [1], the “ILSmax (percentage increase in lifespan), P388” value is given as 86%. For the same compound, the chromatographic logP in series [2] was found to be 0.78.
For `CNc1cc(NC(=O)OC)ccc1Nc1c2ccccc2nc2cc(F)ccc12` [Compound 53] the same measures were 110% and 0.63.
Compound `CNc1cc(NC(=O)OC)ccc1Nc1c2ccccc2nc2cc(Cl)ccc12` [Compound 54] registered a chromatographic logP in series [2] of 0.73.
Regarding `CNc1cc(NC(=O)OC)ccc1Nc1c2ccccc2nc2cc(Br)ccc12` [Compound 55], the chromatographic logP in series [2] was 0.7.
Take `COC(=O)Nc1ccc(Nc2c3ccccc3nc3ccccc23)c(N(C)C)c1` [Compound 59]: the “ILSmax (percentage increase in lifespan), P388” value in series [1] came out at 51%. The compound further registered a chromatographic logP in series [2] of 0.56.
In series [2], `CNc1cc(NS(=O)(=O)c2ccccc2)ccc1Nc1c2ccccc2nc2ccccc12` [Compound 60] showed a chromatographic logP of 0.55.
Turning to `O=S(=O)(Nc1ccc(Nc2c3ccccc3nc3ccccc23)c(NCCO)c1)c1ccccc1` [Compound 61], the “ILSmax (percentage increase in lifespan), P388” value in series [1] was found to be 81%. Further, the chromatographic logP in series [2] was determined as 0.35.
Take `CNc1cc(NS(=O)(=O)c2ccc(N)cc2)ccc1Nc1c2ccccc2nc2ccccc12` [Compound 62]: the chromatographic logP in series [2] was found to be 0.03.
The same measure, in the same setting: for `CNc1cc(NS(=O)(=O)c2ccc(N)cc2)ccc1Nc1c2ccccc2nc2cc(Br)ccc12` [Compound 63] the value was 0.29; for `CNc1cc(NS(=O)(=O)c2ccc(N)cc2)ccc1Nc1c2ccccc2nc2c(C)cccc12` [Compound 64], 0.13.
In the case of `Nc1ccc(S(=O)(=O)Nc2ccc(Nc3c4ccccc4nc4ccccc34)c(NCCO)c2)cc1` [Compound 65], in series [1], the “ILSmax (percentage increase in lifespan), P388” value was found to be 50%. For the same compound, the chromatographic logP in series [2] worked out at 0.18.

One may read the chromatographic logP as lipophilicity estimated from chromatographic retention.

(Values after patent US4603125A, “Substituted o-phenylenediamine acridine compounds having antitumor activity” (Development Finance Corporation of New Zealand, priority 1982, dated 1986).)
